This passage reports Ki and IC50 results from ChEMBL document CHEMBL1158439, “Non-isotopic dual parameter competition assay suitable for high-throughput screening of histone deacetylases” (Bioorg Med Chem Lett, 2009).

In assay [1] the target is T1, Histone deacetylase-like amidohydrolase (Alcaligenes sp. (strain DSM 11172) (Bordetella sp. (strain FB188)), UniProt Q70I53).
T1 sequence (Q70I53 whole entry): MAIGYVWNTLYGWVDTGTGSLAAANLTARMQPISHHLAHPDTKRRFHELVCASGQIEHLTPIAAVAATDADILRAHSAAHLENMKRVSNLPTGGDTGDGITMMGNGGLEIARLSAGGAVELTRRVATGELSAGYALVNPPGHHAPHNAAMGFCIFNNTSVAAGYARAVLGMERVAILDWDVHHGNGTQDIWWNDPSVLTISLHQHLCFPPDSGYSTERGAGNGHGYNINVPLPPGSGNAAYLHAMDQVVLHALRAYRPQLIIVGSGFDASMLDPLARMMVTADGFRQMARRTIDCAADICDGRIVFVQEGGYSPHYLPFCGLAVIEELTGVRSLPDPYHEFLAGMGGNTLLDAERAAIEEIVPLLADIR
In words: Displacement of Atto700-HA from Bordetella / Alcaligenes strain FB188 HDAH by fluorescence anisotropy. On the set-up: species or system Alcaligenaceae bacterium FB188.

For assay [2] the target is unchanged. Kind of assay: Inhibition of Bordetella / Alcaligenes strain FB188 HDAH by fluorogenic enzyme assay. On the set-up: species or system Alcaligenaceae bacterium FB188.
Assay [3] can be described thus: Displacement of Atto700-HA from Bordetella / Alcaligenes strain FB188 […] by fluorescence anisotropy. On the set-up: species or system Alcaligenaceae bacterium FB188.
The nature of assay [4]: Inhibition of HDAC from RT extract.
Assay [5] concerns the target T1, Histone deacetylase-like amidohydrolase (Alcaligenes sp. (strain DSM 11172) (Bordetella sp. (strain FB188)), UniProt Q70I53). Kind of assay: Binding affinity to Bordetella / Alcaligenes strain FB188 HDAC by FRET assay. On the set-up: species or system Alcaligenaceae bacterium FB188.
A short description of assay [6]: Inhibition of Bordetella / Alcaligenes strain FB188 HDAC6 by fluorogenic enzyme assay.
The target in assay [7] is T1, Histone deacetylase-like amidohydrolase (Alcaligenes sp. (strain DSM 11172) (Bordetella sp. (strain FB188)), UniProt Q70I53). Kind of assay: Inhibition of Bordetella / Alcaligenes strain FB188 HDAH by fluorimetric assay. Also on record: species or system Alcaligenaceae bacterium FB188.
A short description of assay [8]: Inhibition of Bordetella / Alcaligenes strain FB188 HDAC6 by fluorescence polarization assay. On the set-up: species or system Alcaligenaceae bacterium FB188.

Structures are written as SMILES.

Consider `CCC1=C(OC)C(=O)C(CCCCCCCCCCC(C)=O)=C(C)C1=O`, for which the inhibitory constant (Ki) in assay [1] was 1.1 µM. In addition, the IC50 is 0.6 µM in assay [2], more than 50 µM in assay [3] and more than 50 µM in assay [4].
Regarding `O=C(CCCCCc1nc2cc3ccccc3cc2[nH]1)C(F)(F)F`, in assay [1], the Ki came out at 1.4 µM. In addition, the IC50 in assay [2] worked out at 0.6 µM; in assay [3] it was 0.07 µM; in assay [4], 0.6 µM.
In the case of `CCCCCC1OC1CC#CCCCCCCCC(=O)O` (configuration not stated), the figures for the Ki in assay [1] and in assay [5] were 20 µM and 4.3 µM, respectively. In addition, the IC50 in assay [2] is 9.2 µM; in assay [3], more than 20 µM.
As for `Nc1ccccc1NC(=O)c1ccc(CNC(=O)OCc2cccnc2)cc1` [ENTINOSTAT], in assay [1], the Ki is more than 100 µM. Further, the IC50 is 118 µM in assay [2], more than 10 µM in assay [6] and 8.8 µM in assay [4].
For `CC(/C=C/C(=O)NO)=C\[C@@H](C)C(=O)c1ccc(N(C)C)cc1` [TRICHOSTATIN], the affinity in assay [1], expressed as Ki, was 0.7 µM. In addition, the IC50 in assay [7] is 1200 nM; in assay [8], 17 nM; in assay [4], 0.001 µM.
As to `CCC(=O)CCCCC[C@@H]1NC(=O)[C@H]2CCCCN2C(=O)[C@H]([C@@H](C)CC)NC(=O)[C@H](Cc2cn(OC)c3ccccc23)NC1=O` [APICIDIN], in assay [1], the affinity, expressed as Ki, was 9.2 µM. This molecule displayed a concentration for half-maximal inhibition (IC50) in assay [8] of 670 nM.
Turning to `CCCCCCCCCCCC[C@@H](C)O[C@@H]1O[C@H](CO)[C@@H](O)[C@H](O)[C@H]1O[C@@H]1O[C@H](COC(C)=O)[C@@H](O)[C@H](O)[C@H]1O`, the Ki in assay [1] is 10 µM; in assay [5], 2 µM. Besides, the IC50 in assay [2] was 6.2 µM; in assay [3], more than 50 µM; in assay [4] it was more than 50 µM.
